According to PMC10144222 (Marine Drugs, 2023):
pIC50: −log10 of the molar value.

Experiments:
Cav2.2 channel = Cav2.2 channel (Homo sapiens, UniProt Q00975); test: cell-based; format: cell-based
[1] = system: coordinated locomotion in mice; details: mouse, in vivo
in vitro = details: human, serum
tremor in mice = details: mouse, in vivo
[2] = format: physicochemical; details: pH 7.4

Chain of Cav2.2 channel (Q00975 whole entry, looked up): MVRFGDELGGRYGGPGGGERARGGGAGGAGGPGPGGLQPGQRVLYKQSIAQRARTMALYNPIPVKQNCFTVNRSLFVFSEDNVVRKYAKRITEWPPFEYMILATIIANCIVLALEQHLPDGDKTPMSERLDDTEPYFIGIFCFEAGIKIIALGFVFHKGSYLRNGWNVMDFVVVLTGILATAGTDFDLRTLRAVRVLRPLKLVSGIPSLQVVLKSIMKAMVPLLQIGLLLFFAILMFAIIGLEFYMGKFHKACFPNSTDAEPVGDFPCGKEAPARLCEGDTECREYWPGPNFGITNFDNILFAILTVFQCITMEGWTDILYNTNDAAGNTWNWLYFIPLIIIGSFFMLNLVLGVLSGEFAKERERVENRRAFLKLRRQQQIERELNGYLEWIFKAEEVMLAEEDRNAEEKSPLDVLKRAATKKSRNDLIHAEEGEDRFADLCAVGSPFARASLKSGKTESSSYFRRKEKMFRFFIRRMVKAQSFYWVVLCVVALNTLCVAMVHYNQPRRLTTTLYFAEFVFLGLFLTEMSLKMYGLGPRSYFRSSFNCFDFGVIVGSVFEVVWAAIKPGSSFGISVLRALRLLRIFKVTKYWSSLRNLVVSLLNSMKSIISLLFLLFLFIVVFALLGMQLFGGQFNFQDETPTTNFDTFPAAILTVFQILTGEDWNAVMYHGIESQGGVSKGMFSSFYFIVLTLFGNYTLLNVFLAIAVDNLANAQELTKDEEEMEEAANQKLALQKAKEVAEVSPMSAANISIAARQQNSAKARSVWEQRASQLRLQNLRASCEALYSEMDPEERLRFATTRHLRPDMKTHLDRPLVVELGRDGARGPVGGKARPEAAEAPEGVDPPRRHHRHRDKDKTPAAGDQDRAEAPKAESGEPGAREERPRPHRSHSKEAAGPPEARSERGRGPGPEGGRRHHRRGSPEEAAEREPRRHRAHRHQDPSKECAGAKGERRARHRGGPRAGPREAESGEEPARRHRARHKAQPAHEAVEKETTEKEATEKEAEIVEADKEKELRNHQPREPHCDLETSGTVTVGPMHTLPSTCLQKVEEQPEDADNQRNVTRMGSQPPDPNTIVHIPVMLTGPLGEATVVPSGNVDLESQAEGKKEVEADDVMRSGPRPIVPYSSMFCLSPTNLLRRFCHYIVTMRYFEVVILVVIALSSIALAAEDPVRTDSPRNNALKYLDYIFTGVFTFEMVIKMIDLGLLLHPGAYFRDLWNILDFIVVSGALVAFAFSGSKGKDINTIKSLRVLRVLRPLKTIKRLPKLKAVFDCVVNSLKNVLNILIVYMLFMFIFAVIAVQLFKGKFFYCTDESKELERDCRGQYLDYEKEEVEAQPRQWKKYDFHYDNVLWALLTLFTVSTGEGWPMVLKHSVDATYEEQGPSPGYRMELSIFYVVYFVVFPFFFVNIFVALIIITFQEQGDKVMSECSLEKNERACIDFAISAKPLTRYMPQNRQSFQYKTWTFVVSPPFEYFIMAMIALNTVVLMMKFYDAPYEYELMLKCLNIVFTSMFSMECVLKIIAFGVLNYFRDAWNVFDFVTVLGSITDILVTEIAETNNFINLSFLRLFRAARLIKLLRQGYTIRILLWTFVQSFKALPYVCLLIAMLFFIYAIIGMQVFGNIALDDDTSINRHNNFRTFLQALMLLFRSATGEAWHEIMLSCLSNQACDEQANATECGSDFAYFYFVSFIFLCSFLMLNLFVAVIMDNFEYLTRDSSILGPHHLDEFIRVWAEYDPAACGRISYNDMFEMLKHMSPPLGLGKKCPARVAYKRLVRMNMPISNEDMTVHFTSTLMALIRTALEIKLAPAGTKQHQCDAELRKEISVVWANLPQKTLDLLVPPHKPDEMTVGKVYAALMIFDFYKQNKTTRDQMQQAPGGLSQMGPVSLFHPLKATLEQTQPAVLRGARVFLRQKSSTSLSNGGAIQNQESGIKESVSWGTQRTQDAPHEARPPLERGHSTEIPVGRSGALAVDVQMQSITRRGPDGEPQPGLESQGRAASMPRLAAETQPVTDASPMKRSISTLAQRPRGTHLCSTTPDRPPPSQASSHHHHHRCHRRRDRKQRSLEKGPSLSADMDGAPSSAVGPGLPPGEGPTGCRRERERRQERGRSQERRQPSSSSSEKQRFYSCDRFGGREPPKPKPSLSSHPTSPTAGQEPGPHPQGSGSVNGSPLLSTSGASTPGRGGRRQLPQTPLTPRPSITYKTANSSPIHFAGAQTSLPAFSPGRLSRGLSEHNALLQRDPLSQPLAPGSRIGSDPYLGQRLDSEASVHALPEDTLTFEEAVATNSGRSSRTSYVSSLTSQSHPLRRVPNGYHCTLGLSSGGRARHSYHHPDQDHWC

Question: With CCCCCCCCCCCCCC(=O)N[C@H]1CSSC[C@@H]2NC(=O)[C@@H]3CSSC[C@@H](C(N)=O)NC(=O)[C@H](CCCCN)NC(=O)CNC(=O)[C@H](CO)NC(=O)[C@H](CCCNC(=N)N)NC(=O)[C@H](CSSC[C@H](NC(=O)[C@H](CCCCN)NC(=O)[C@H](C)NC(=O)CNC(=O)[C@H](CCCCN)NC(=O)CNC(=O)[C@H](CCCCN)NC1=O)C(=O)N[C@@H](CO)C(=O)N[C@@H](CCCNC(=N)N)C(=O)N[C@@H](CC(C)C)C(=O)N[C@@H](CCSC)C(=O)N[C@@H](Cc1ccc(O)cc1)C(=O)N[C@@H](CC(=O)O)C(=O)N3)NC(=O)[C@H](CO)NC(=O)CNC(=O)[C@H]([C@@H](C)O)NC2=O [Myr-MVIIA] as the compound, how does the pIC50 (Cav2.2 channel) read?
Answer: 7.04

Question: And the “reduction of ICa amplitude” value (Cav2.2 channel)?
Answer: 66.83 ± 0.16%

Question: What about the “effect on coordinated locomotion” value [1] of the same compound?
Answer: did not affect coordinated locomotion

Question: What about the remaining at 24 h (in vitro) of the same compound?
Answer: 67.8%

Question: And the “tremor intensity (4-point scale 0-3)” value (tremor in mice)?
Answer: no tremor symptoms

Question: With CSCC[C@@H]1NC(=O)[C@H](CC(C)C)NC(=O)[C@H](CCCNC(=N)N)NC(=O)[C@H](CO)NC(=O)[C@@H]2CSSC[C@@H]3NC(=O)[C@H](CO)NC(=O)CNC(=O)[C@H]([C@@H](C)O)NC(=O)[C@H](CSSC[C@H](N)C(=O)N[C@@H](CCCCN)C(=O)NCC(=O)N[C@@H](CCCCN)C(=O)NCC(=O)N[C@@H](C)C(=O)N[C@@H](CCCCN)C(=O)N2)NC(=O)[C@H](CSSC[C@@H](C(N)=O)NC(=O)[C@H](CCCCN)NC(=O)CNC(=O)[C@H](CO)NC(=O)[C@H](CCCNC(=N)N)NC3=O)NC(=O)[C@H](CC(=O)O)NC(=O)[C@H](Cc2ccc(O)cc2)NC1=O [MVIIA, ω-conotoxin MVIIA, reference compound] as the compound, how does the “reduction of ICa amplitude” value (Cav2.2 channel) read?
Answer: 100.00 ± 0.00%

Question: And the “particle size (dynamic light scattering)” value [2]?
Answer: 48.74 ± 16.07 nm

Question: And the “effect on coordinated locomotion” value [1]?
Answer: significant at 30–60 min and gradually decreased from 2 to 4 h

Question: And the “tremor intensity (4-point scale 0-3)” value (tremor in mice)?
Answer: highest tremor intensity at 30–60 min, after which it gradually decreased
